Results from US20150025154A1, “OPHTHALMIC COMPOSITION” (ROHTO PHARMACEUTICAL CO., LTD., priority 2012, published 2015).

Key:
Format in all cases: physicochemical
[1] = Test for residual ratio of GGA No. 1: storage of eye drops in glass or PET containers; details: Tables 1 to 3, glass and PET containers
Experimental: (§1) In accordance with the measurement conditions for the elution test described in PFSB/ELD Notification No. 0412007 “teprenone 100 mg/g fine granule”, the GGA concentration of each eye drop was determined from the area value of the 5Z-mono-cis form (Ac) and the area value of the all-trans form (At) using Japanese pharmacopoeia “teprenone reference standard (all-trans form:5Z-mono-cis form=about 6:4 (weight ratio), Pharmaceutical and Medical Device Regulatory Science Society of Japan)” or teprenone (Wako Pure Chemical Industries) as a reference standard under the HPLC measurement conditions described below. For the eye drop containing teprenone (all-trans form:5Z-mono-cis form=3:2 (weight ratio)), the GGA content was calculated by summing the amounts of the all-trans form and the 5Z-mono-cis form. […]
A polyethylene terephthalate container (8 mL) (the container for Rohto Dryaid EX, Rohto Pharmaceutical) was completely filled with each of the eye drops in an aseptic manner. […] The teprenone or all-trans form content (g/100 mL) in each of the eye drops was quantified under the HPLC conditions described above immediately after the production and after being left to stand for a predetermined period of time, and the residual ratio (%) was calculated. […]

[2] = Test for residual ratio of GGA No. 2: eye drops in LDPE or HDPE eye drop containers, 40° C., 75% RH; details: Table 6, LDPE and HDPE eye drop containers
Experimental: To a surfactant (POE castor oil and POE hydrogenated castor oil 60) warmed to 65° C., the all-trans form and optionally ascorbyl tetraisopalmitate were added and dissolved under stirring in a hot water bath at 65° C. for 2 minutes. Water at 65° C. was added and each buffer was added under stirring to give a homogeneous solution. The pH and osmotic pressure were adjusted with hydrochloric acid or sodium hydroxide.
Ten mL of each of the thus obtained eye drops was poured into a 13 mL eye drop container (material: low density polyethylene or high density polyethylene; shape: the same as that of the container for Namida Rohto Dry Eye (trade name) (Rohto Pharmaceutical)) with a glass volumetric pipette and the container was sealed.
For these eye drops, the stability test was performed by leaving them to stand in the upright position at 40° C., 75% RH for 2 hours, 8 hours, and 24 hours. The all-trans form content (g/100 mL) in each of the eye drops was quantified by HPLC immediately after the production and after being left to stand for a predetermined period of time, and the residual ratio (%) was calculated.

[3] = Residual ratio of GGA in eye drops held in various plastic or glass containers, 40° C., 75% RH, 2 hours; details: Table 4, various container materials
Experimental: as §1
Five mL of each of the eye drops was poured into various plastic or glass containers (volume: 10 to 15 mL) with a glass volumetric pipette and the containers were sealed. […] The all-trans form content (g/100 mL) in each of the eye drops was quantified under the HPLC conditions described above immediately after the production and after being left to stand for a predetermined period of time, and the residual ratio (%) was calculated.

Cc1cc(C(C)(C)C)c(O)c(C(C)(C)C)c1 [BHT, butylhydroxytoluene]
Effect of added fat-soluble antioxidant on loss of the GGA content [1]: greatly reduced the loss of the GGA content

CCCCCCCCC(CCCCCC)C(=O)OC[C@H](OC(=O)C(CCCCCC)CCCCCCCC)[C@H]1OC(=O)C(OC(=O)C(CCCCCC)CCCCCCCC)=C1OC(=O)C(CCCCCC)CCCCCCCC (stereo partly drawn) [ascorbyl tetraisopalmitate]
Effect of added fat-soluble antioxidant on adsorption of GGA to the container wall [2]: reduced adsorption of GGA to the wall of the containers in a dose-dependent manner

CCCCCCCCCCCCCCCC(=O)OC/C=C(C)/C=C/C=C(C)/C=C/C1=C(C)CCCC1(C)C [retinol palmitate]
Effect of added fat-soluble antioxidant on loss of the GGA content [3]: greatly reduced the loss of the GGA content
